Several values for one entry are separate records, joined by “and”; a condition that tells them apart may be missing. Equal values may be shown once. Read-outs that look alike come from different tables or passages of the source.
Test system: C. elegans
[1] = Table S2, C. elegans SS assay, 110 μM, 0 h, averages of 4 data points
[2] = Table S2, C. elegans SS assay, 110 μM, 24 h, averages of 4 data points

Row | Structure (SMILES) | Percentage of motility inhibition 0 h [1] | Percentage of motility inhibition 24 h [2] | Percentage of motility inhibition 0 h (110 µM) [%] | Percentage of motility inhibition 24 h (110 µM) [%]
1 | C=C1CC[C@@H]2[C@](C)(CO)[C@H](O)CC[C@@]2(C)[C@@H]1/C=C/C1=CCOC1=O [Dehydroandrographolide] | 0% and 4% | 7% and 9% | – | –
2 | COc1cc2c(cc1OC)-c1c(C)c3ccc(OC)c(OC)c3c[n+]1CC2.[Cl-] [Dehydrocorydaline (chloride)] | 0% | 0% | – | –
3 | COc1cc2c(cc1OC)-c1c(C)c3ccc(OC)c(OC)c3c[n+]1CC2.[OH-] [Dehydrocorydaline (hydroxyl)] | 2% | 0% | – | –
4 | COc1cc2c(cc1OC)-c1c(C)c3ccc(OC)c(OC)c3c[n+]1CC2.O=[N+]([O-])[O-] [Dehydrocorydaline (nitrate)] | 5% | 0% | – | –
5 | C=C(CC[C@@H](C(=O)O)[C@H]1CC[C@@]2(C)C3=CC[C@H]4C(C)(C)[C@@H](OC(C)=O)CC[C@]4(C)C3=CC[C@]12C)C(C)C [Dehydroeburicoic acid monoacetate] | 20% | 24% | – | –
6 | CN1C2=C3N=c4ccccc4=C3CCN2C(=O)c2ccccc21.Cl [Dehydroevodiamine (hydrochloride)] | 8% | 1% | – | –
7 | C=C(CCC(C(=O)O)[C@H]1[C@H](O)C[C@@]2(C)C3=CC[C@H]4C(C)(C)[C@@H](OC(C)=O)CC[C@]4(C)C3=CC[C@]12C)C(C)C (stereo partly drawn) [Dehydropachymic acid] | 29% | 35% | – | –
8 | CC(C)Nc1cccnc1N1CCN(C(=O)c2cc3cc(NS(C)(=O)=O)ccc3[nH]2)CC1.CS(=O)(=O)O [Delavirdine (mesylate)] | 22% | 16% | – | –
9 | CN1CCN(c2ccc(N3C[C@H](CO)OC3=O)cc2F)C=N1 [Delpazolid] | 2% | 3% | – | –
10 | CN(C)[C@@H]1C(O)=C(C(N)=O)C(=O)[C@@]2(O)C(O)=C3C(=O)c4c(O)ccc(Cl)c4[C@@H](O)[C@H]3C[C@@H]12.Cl [Demeclocycline (hydrochloride)] | 17% | 12% | – | –
11 | C/C(=C\C=C\[C@@]1(C)OC(=O)[C@]23CC=C(C(=O)O)CC[C@]2(O)[C@H]1CC3)C(=O)O [Demethoxydeacetoxypseudolaric acid B] | 0% | 0% | – | –
12 | COc1ccc2cc3[n+](cc2c1OC)CCc1cc(O)c(O)cc1-3.[Cl-] [Demethyleneberberine (chloride)] | 0% | 13% | – | –
13 | C[C@@]1(C(=O)O)CC[C@]2(C)CC[C@]3(C)C4=CC(=O)c5c(cc(O)c(O)c5C=O)[C@]4(C)CC[C@@]3(C)[C@@H]2C1 [Demethylzeylasteral] | 0% | 36% | – | –
14 | CC(C)[C@@H]1[C@H]2OC(=O)[C@@H]1[C@@H]1CC[C@@H]3CN(C)[C@H]2[C@@]31C [Dendrobine] | 0% | 3% | – | –
15 | C[C@H](CCC(=O)[O-])[C@H]1CC[C@H]2[C@@H]3CC[C@@H]4C[C@H](O)CC[C@]4(C)[C@H]3C[C@H](O)[C@]12C.[Na+] [Deoxycholic acid sodium salt] | 0% | 26% | – | –
16 | C=C(C)C(=O)O[C@H]1CC2=C[C@@H](C/C(C)=C/[C@H]3OC(=O)C(=C)[C@H]13)OC2=O [Deoxyelephantopin] | 0% | 9% | – | –
17 | CC1(C)OC2CC(=O)OCC23C1CC(=O)C1(C)C2=CC(=O)OC(c4ccoc4)C2(C)CCC13 (stereo not drawn) [Deoxylimonin] | 9% | 50% | – | –
18 | CC1(C)[C@@H](O[C@H]2O[C@H](C(=O)O)[C@@H](O)[C@H](O)[C@H]2O[C@@H]2O[C@H](C(=O)O)[C@@H](O)[C@H](O)[C@H]2O)CC[C@]2(C)[C@H]3C(=O)C=C4[C@@H]5C[C@@](C)(C(=O)O)CC[C@]5(C)CC[C@@]4(C)[C@]3(C)CC[C@@H]12.N.N [Diammonium Glycyrrhizinate] | – | 4% and 11% | – | –
19 | COc1cc(-c2coc3cc4c(c(O)c3c2=O)OCO4)cc(O)c1OC [Dichotomitin] | 34% | 22% | – | –
20 | COc1ccc([C@@H]2CC(=O)c3c(O)cc(O[C@@H]4O[C@H](CO[C@@H]5O[C@@H](C)[C@H](O)[C@@H](O)[C@H]5O)[C@@H](O)[C@H](O)[C@H]4O)cc3O2)cc1 [Didymin] | 1% | 6% | – | –

Row | Structure (SMILES) | Percentage of motility inhibition 0 h [1] | Percentage of motility inhibition 24 h [2] | Percentage of motility inhibition 0 h (110 µM) [%] | Percentage of motility inhibition 24 h (110 µM) [%]
21 | CCN(CC)C(=O)N1CCN(C)CC1.O=C(O)CC(O)(CC(=O)O)C(=O)O [Diethylcarbamazine (citrate)] | 13% | 17% | – | –
22 | CC1=C[C@H]2[C@@H](CC1)[C@H](C)CC[C@H]2[C@@H](C)C(=O)O [Dihydroartemisinic acid] | 0% | 15% | – | –
23 | CC(=O)OC(C)(C)CCC(=O)[C@](C)(O)[C@H]1[C@H](O)C[C@@]2(C)[C@@H]3CC=C4[C@@H](C[C@H](O)C(=O)C4(C)C)[C@]3(C)C(=O)C[C@]12C [Dihydrocucurbitacin B] | 0% | 11% | – | –
24 | CCCCCCCCCCCCCc1cc(=O)c2ccccc2n1C [Dihydroevocarpine] | 3% | 0% | – | –
25 | O[C@H]1[C@H]2c3cc4c(cc3CN3CC[C@H](C[C@@H]1O)[C@H]23)OCO4 [Dihydrolycorine] | 0% | 0% | – | –
26 | CN[C@@H]1[C@H](O[C@H]2[C@H](O[C@H]3[C@H](O)[C@@H](O)[C@H](NC(=N)N)[C@@H](O)[C@@H]3NC(=N)N)O[C@@H](C)[C@]2(O)CO)O[C@@H](CO)[C@H](O)[C@H]1O.CN[C@@H]1[C@H](O[C@H]2[C@H](O[C@H]3[C@H](O)[C@@H](O)[C@H](NC(=N)N)[C@@H](O)[C@@H]3NC(=N)N)O[C@@H](C)[C@]2(O)CO)O[C@@H](CO)[C@H](O)[C@H]1O.O=S(=O)(O)O.O=S(=O)(O)O.O=S(=O)(O)O [Dihydrostreptomycin (sulfate)] | 0% | 0% | – | –
27 | Br.CO[C@H]1CC=C2CCN3CCC4=C(CC(=O)OC4)[C@]23C1 [Dihydro‐β‐er ythroidine (hydrobromide)] | 7% | 6% | – | –
28 | COc1ccc(-c2cc(=O)c3c(O)cc(O[C@@H]4O[C@H](C(=O)O)[C@@H](O)[C@H](O)[C@H]4O)cc3o2)cc1O [DiosMetin 7‐O‐β‐D‐Glucuronide] | 4% | 21% | – | –
29 | C[C@@]12C[C@H](c3ccoc3)O[C@@]13C[C@H](OC3=O)[C@H]1[C@H]2C[C@@H]2C[C@H]1C(=O)O2 [Diosbulbin B] | 0% | 31% | – | –
30 | COc1ccc(-c2cc(=O)c3c(O)cc(O[C@@H]4O[C@H](CO)[C@@H](O)[C@H](O)[C@H]4O)cc3o2)cc1O [Diosmetin‐7‐O‐β‐D‐glucopyranoside] | 53% | 10% | – | –
31 | COc1ccc(-c2cc(=O)c3c(O)cc(O[C@@H]4O[C@H](CO[C@@H]5O[C@@H](C)[C@H](O)[C@@H](O)[C@H]5O)[C@@H](O)[C@H](O)[C@H]4O)cc3o2)cc1O [Diosmin] | – | 10% and 4% | – | –
32 | Cn1c(=O)c2c(ncn2CC(O)CO)n(C)c1=O (stereo not drawn) [Diphylline] | 66% | 31% | – | –
33 | CC1(C)[C@@H](O[C@H]2O[C@H](C(=O)[O-])[C@@H](O)[C@H](O)[C@H]2O[C@@H]2O[C@H](C(=O)[O-])[C@@H](O)[C@H](O)[C@H]2O)CC[C@]2(C)[C@H]3C(=O)C=C4[C@@H]5C[C@@](C)(C(=O)O)CC[C@]5(C)CC[C@@]4(C)[C@]3(C)CC[C@@H]12.[K+].[K+] [Dipotassium glycyrrhizinate] | 17% and 15% | 3% | – | –
34 | C[C@@H]1O[C@@H](O[C@H]2[C@H](O[C@H]3CC[C@@]4(C)[C@@H](CC[C@]5(C)[C@@H]4CC=C4[C@@H]6CC(C)(C)CC[C@]6(C(=O)O[C@@H]6O[C@H](CO[C@@H]7O[C@H](CO)[C@@H](O)[C@H](O)[C@H]7O)[C@@H](O)[C@H](O)[C@H]6O)CC[C@]45C)[C@]3(C)CO)OC[C@H](O)[C@@H]2O)[C@H](O)[C@H](O)[C@H]1O [Dipsacoside B] | – | – | 7 | 5
35 | O=C([O-])CCC(=O)[O-].[Na+].[Na+] [Disodium succinate] | 19% | 1% | – | –
36 | C[C@@H]1CCO[C@H]2Cn3cc(C(=O)NCc4ccc(F)cc4F)c(=O)c([O-])c3C(=O)N12.[Na+] [Dolutegravir (sodium)] | 0% | 17% | – | –
37 | CO[C@H]1C[C@H](O[C@H]2[C@H](C)O[C@@H](O[C@@H]3/C(C)=C/C[C@@H]4C[C@@H](C[C@]5(C=C[C@H](C)[C@@H](C6CCCCC6)O5)O4)OC(=O)[C@@H]4C=C(C)[C@@H](O)[C@H]5OC/C(=C\C=C\[C@@H]3C)[C@]54O)C[C@@H]2OC)O[C@@H](C)[C@@H]1O [Doramectin] | 66% | 49% | – | –
38 | C[C@@H](O)[C@H]1C(=O)N2C(C(=O)O)=C(S[C@@H]3CN[C@H](CNS(N)(=O)=O)C3)[C@H](C)[C@H]12.O [Doripenem (monohydrate)] | 15% | 7% | – | –
39 | COc1cccc2c1C(=O)c1c(O)c3c(c(O)c1C2=O)C[C@@](O)(C(=O)CO)C[C@@H]3O[C@H]1C[C@H](N)[C@H](O)[C@H](C)O1.Cl [Doxorubicin (hydrochloride)] | 13% | 4% | – | –
40 | C[C@@H]1NC(=O)N[C@@H]1CCCCCC(=O)O [D‐Desthiobiotin] | 18% | 4% | – | –

— PMC11855827, “High-Throughput Screening of Five Compound Libraries for Anthelmintic Activity and Toxicity Leads to the Discovery of Two Flavonoid Compounds” (International Journal of Molecular Sciences, 2025)
